Reference: US20220002288A1, “MONOBACTAM COMPOUNDS AND USE THEREFOR” (priority 2018, published 2022)
Counter-ions that a name gives are not always drawn.

How the values were obtained:
Format in all cases: cell-based
[1] = system: Acinetobacter baumannii, Pseudomonas aeruginosa, and Escherichia coli; experiment: In vitro antibacterial activity, summary statements over all strains of Experimental Example 1; conditions: method of Experimental Example 1
Method: Compounds: The compounds prepared in the above examples and comparative examples. All test compounds were dissolved and diluted with DMSO, and the final concentrations were prepared as 64, 32, 16, 8, 4, 2, 1, 0.5, 0.25, 0.125, 0.0625 μg/mL in the experiment.
Bacterial strains: 6 strains of Acinetobacter baumannii (codenames: HDBAB-YK4, HDBAB-YK7, HDBAB-YK12, HDBAB-YK16, HDBAB_OXA_7, ATCC 19606), 2 strains of Pseudomonas aeruginosa (codenames: HDBPA-YK9, HDBPA)-YK15), 1 strain of Escherichia coli (codename: CLB30048), all provided by HD Biosciences (Shanghai) Co., Ltd.
The minimum inhibitory concentration (MIC) of each compound was recorded according to the guidelines of the Clinical and Laboratory Standards Institute.

[2] = system: clinically isolated Klebsiella pneumoniae; experiment: MIC experiment of clinically sourced bacterial strains; conditions: for MIC: Klebsiella pneumoniae
Method: (§1) Compounds: the compound of Example 1 and Compound C of Comparative Example 3. Both test compounds were dissolved and diluted with DMSO, and the final concentrations were prepared as 64, 32, 16, 8, 4, 2, 1, 0.5, 0.25, 0.125, 0.0625 μg/mL in the experiment.
(§2) Bacterial strains: clinically isolated Acinetobacter baumannii, Pseudomonas aeruginosa, Klebsiella pneumoniae and Escherichia coli, all provided by HD Biosciences (Shanghai) Co., Ltd.
(§3) Medium: Trypticase soy agar (TSA) (BD BBL 211043), and Cation-adjusted Mueller Hinton broth (CAMHB) (BD BBL212322).
(§4) The experimental method was the same as that in the above Experimental Example 1.

[3] = system: clinically isolated Escherichia coli; experiment: as above
Method: as §1, §2, §3, §4

[4] = system: clinically isolated Acinetobacter baumannii; experiment: as above; conditions: for MIC: Acinetobacter baumannii
Method: as §1, §2, §3, §4

[5] = system: clinically isolated Pseudomonas aeruginosa; experiment: as above
Method: as §1, §2, §3, §4

Escherichia coli = experiment: In vitro antibacterial activity, minimum inhibitory concentration (MIC); conditions: strain CLB30048, read-out: MIC
Outline: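 CLSI broth microdilution in 1.02×CAMHB; two-fold compound series 64 to 0.0625 μg/mL final from DMSO. Inoculum from TSA colonies adjusted to OD600 0.1-0.15 in saline, diluted 400-fold, verified by colony count. Growth scored visually after 20 h at 35±2° C.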

CC1(C)[C@H](NC(=O)/C(=N\O[C@@H](COc2ccc(C(=O)Nc3cn(CCCN)[n+](CC4CNC4)c3)cc2)C(=O)O)c2csc(N)n2)C(=O)N1OS(=O)(=O)[O-] [Example 1, (S)-3-((Z)-2-(((S)-2-(4-((1-(3-aminopropyl)-2-(azetidin-3-ylmethyl)-1H-pyrazol-2-ium-4-yl)carbamoyl)phenoxy)-1-carboxyethoxy)imino)-2-(2-aminothiazol-4-yl)acetylamino)-2,2-dimethyl-4-oxoazetidin-1-yl Sulfate]
in vitro antibacterial activity (in words) [1]: excellent antibacterial activity
MIC ([2]; clinical strain Kp309): ≤ 0.063 µg/mL
MIC ([2]; clinical strain Kp310): ≤ 0.063 µg/mL
MIC ([2]; clinical strain Kp472): 0.125 µg/mL
MIC ([2]; clinical strain Kp510): 0.25 µg/mL
MIC value relative to that of Compound C ([2]; strain Kp309): ¼
MIC ([3]; clinical strain HDB0140): 1 µg/mL
MIC ([3]; clinical strain HDB0918): 0.25 µg/mL
MIC ([3]; clinical strain HDB1120): ≤ 0.063 µg/mL
MIC ([3]; clinical strain HDB5510): 0.125 µg/mL
MIC ([3]; clinical strain HDB8244): 0.5 µg/mL
MIC ([4]; clinical strain A0242702): ≤ 0.063 µg/mL
MIC ([4]; clinical strain A0244122): 0.5 µg/mL
MIC ([4]; clinical strain A0248164): 1 µg/mL
MIC ([4]; clinical strain A0248384): 1 µg/mL
MIC ([4]; clinical strain A0252247): ≤ 0.063 µg/mL
MIC ([4]; clinical strain A0254384): ≤ 0.063 µg/mL
MIC ([4]; clinical strain A0255830): 4 µg/mL
MIC ([4]; clinical strain A0257674): ≤ 0.063 µg/mL
MIC ([4]; clinical strain A0258522): ≤ 0.063 µg/mL
MIC ([4]; clinical strain A0262855): ≤ 0.063 µg/mL
MIC ([4]; clinical strain A0270386): 1 µg/mL
MIC ([4]; clinical strain A0272260): 0.125 µg/mL
MIC ([4]; clinical strain A0273375): 1 µg/mL
MIC ([4]; clinical strain A0273826): 4 µg/mL
MIC ([4]; clinical strain A0274925): 0.125 µg/mL
MIC ([4]; clinical strain A0283307): ≤ 0.063 µg/mL
MIC ([4]; clinical strain A0284214): ≤ 0.063 µg/mL
MIC ([4]; clinical strain A0284295): ≤ 0.063 µg/mL
MIC ([4]; clinical strain A0284552): 0.5 µg/mL
MIC ([4]; clinical strain A0285002): 1 µg/mL
MIC ([4]; clinical strain A0285050): 0.125 µg/mL
MIC ([4]; clinical strain A0285231): 1 µg/mL
MIC ([4]; clinical strain A0285299): ≤ 0.063 µg/mL
MIC ([4]; clinical strain A0285369): ≤ 0.063 µg/mL
MIC ([4]; clinical strain A0285909): 4 µg/mL
MIC ([4]; clinical strain A0286065): 1 µg/mL
MIC90 ([4]; clinically isolated Acinetobacter baumannii): 4 µg/mL
MIC value relative to that of Compound C ([4]; strains A0244122, A0255830, A0273826, A0285299, A0285909): ¼
MIC ([5]; clinical strain P7): 1 µg/mL
MIC ([5]; clinical strain P43): 0.25 µg/mL
MIC ([5]; clinical strain P155): 1 µg/mL
MIC ([5]; clinical strain P157): 1 µg/mL
MIC ([5]; clinical strain P162): 1 µg/mL
MIC (Escherichia coli): 2 µg/mL
